Earlier results as cited in patent US20210154335A1, “DYE AGGREGATES-CONTAINING NANOPARTICLES AND USES THEREOF” (BOARD OF REGENTS, THE UNIVERSITY OF TEXAS SYSTEM, priority 2019, published 2021).

Conditions: in vivo

CC1(C)C(/C=C/C=C/C=C/C=C2\N(CCCCS(=O)(=O)O)c3ccc4ccccc4c3C2(C)C)=[N+](CCCCS(=O)(=O)[O-])c2ccc3ccccc3c21 [ICG, indocyanine green]
blood circulation half-life: 2 to 4 min
